Row | melting point [°C] | SMILES
1 | 69 to 71 | Cc1nc(-c2ccc(-c3ccc(C(=O)Nc4cc(OCCN(C)C)c(I)cc4I)cc3)c(C)c2)no1
2 | 104 to 105 | CCc1c(-c2ccc(OCc3ccccc3)cc2)cn2cccc(OCc3ccccc3)c12
3 | 128 to 129 | CCOC(=O)C=Cc1ccc(OCc2coc(-c3ccccc3)n2)c(OC)c1
4 | > 220 | c1coc(-c2ccnc3[nH]c4ccccc4c23)c1
5 | 119 to 123 | CCCCC1(CCCC)CS(=O)(=O)c2ccc(N(C)C)cc2[C@@H](c2ccc(OCCCCCSc3nnnn3CC(=O)O)cc2)[C@H]1O
6 | 119 to 121 | CC(C)c1nc(C(C)C)c(CSc2ccc(F)cc2)c(-c2ccc(F)cc2)c1CO
7 | 246 to 248 | COC(=O)c1ccc(O)cc1NC(=O)c1cccc2ccccc12
8 | 55 to 57 | COc1cnc(CSc2nc3cc(OCC(F)(F)F)ccc3[nH]2)cc1OC
9 | 151 | CC#CCOc1ccc(SC(C(=O)NO)c2ccccc2)cc1 (centres undefined)
10 | 206 to 208 | Cc1nc(N2CCCC(=Cc3cccnc3)C2=O)sc1C(=O)NCc1ccccc1
11 | 145 to 147 | CC(C)(C)C(=O)CC(=O)Nc1cc(OC(=O)c2cc(C(C)(C)C)c(O)c(C(C)(C)C)c2)ccc1Cl
12 | 102 to 103 | CC(C)(C)OC(=O)C(Cc1ccc(Cl)cc1)N=C(c1ccccc1)c1ccccc1 (centres undefined)
13 | 208 to 209 | CC(C)(C)OC(=O)N1CCC(O)(c2ccc(Oc3ccc(NC(=O)c4ccc(Cl)c(Cl)c4)cc3)cc2)CC1
14 | 170 to 172 | CO[C@]1(c2csc(S(=O)(=O)c3ccc4c(c3)CC/C4=N\O)c2)CCO[C@@H]1C (racemic)
15 | 181 to 182 | O=c1c2cc3ccccc3cc2oc2cc(OCC3CO3)cc(OCC3CO3)c12 (centres undefined)
16 | 198 to 200 | Cc1nc2ccc(-c3ccc(OCC4(N)COC4)cc3)nn2c1-c1cnc(N)c(C(F)(F)F)c1
17 | 140 to 144 | Cc1cccc(-c2n[nH]cc2-c2ccc(F)c(-c3cn4c(n3)S(=O)CC4)c2)n1 (centres undefined)
18 | 292 to 294 | CNC(=O)c1ccccc1Nc1nc(Nc2ccc3c(c2)N(C)C(=O)CCC3)ncc1Cl
19 | 179 to 180 | CC(C)n1cnc(-c2ccc(F)cc2)c1-c1ccncc1
20 | 271 to 272 | CCOC(=O)c1ncc2[nH]c3ccc(C(=O)OCc4ccccc4)cc3c2n1
21 | 210 to 212 | Cc1c(C(=O)Nc2ccc(N3CCC(N4CCOCC4)CC3)cc2C#N)cnn1-c1ccc(C(F)(F)F)cc1

Row | melting point [°C] | SMILES
22 | 116 to 118 | COc1ccc(CC2CCCN(c3nc(C)c(C(=O)NCc4ccccc4)s3)C2=O)cc1 (centres undefined)
23 | 276 | CCOC(=O)c1c(=O)c2cc(F)c(Cl)cc2n2c(CN(C)C)csc12
24 | 215 to 218 | O=C(Nc1ccc(C(=O)N2CCc3sc(Cc4ccccn4)nc3-c3ccccc32)cc1)c1ccccc1-c1ccccc1
25 | 221 to 223 | N#Cc1cnc2cc(-c3csc(CN4CCOCC4)c3)ccc2c1Nc1ccc(Oc2ccccc2)cc1
26 | 215 to 218 | CC1CCN(S(=O)(=O)Nc2cc(C(c3cc(F)ccc3F)S(=O)(=O)c3ccc(Cl)cc3)c(Cl)cn2)CC1 (centres undefined)
27 | 70 to 71 | COCCNC(=O)c1cccc(-c2cccc3cc(Cc4ccc(F)c(OC)c4)sc23)c1
28 | 167 to 168 | Cc1cc(O)c(Cc2ccc(C(C)C)cc2)c(C)c1N(Cc1ccccc1)C(=O)CC(C)(C)C
29 | 118 to 119 | COc1ccccc1CNC(=O)C(=O)NCCc1ccccn1
30 | 204 to 207 | CCc1ccc2c(CC(=O)O)c(C(=O)c3cc(C)ccn3)[nH]c2c1
31 | 307 | O=C(c1ccc(O)cc1)c1ccc2cc(C(=O)c3ccc(O)cc3)ccc2c1
32 | 160 | c1ccc(-c2ccnc(-c3ccc4cc[nH]c4c3)n2)cc1
33 | 195 to 200 | O=C1c2cc3ccccc3cc2C(=O)c2c(Oc3ccccc3)cccc21
34 | 189 to 190 | CC(C)c1cc(C=C2Sc3ccccc3N(Cc3nnn[nH]3)C2=O)cc(C(C)C)c1O
35 | 216 to 217 | CCNC(=O)CC1CN=C(c2cc3cc(Oc4ccc(S(C)(=O)=O)nc4)ccc3[nH]2)S1 (centres undefined)
36 | 295 to 298 | C[C@@H]1CCCN1CCc1ccc2cc(-c3ccc(=O)[nH]n3)ccc2c1
37 | 151 to 153 | Nc1ccc([N+](=O)[O-])cc1OCCc1cccc2ccccc12
38 | 94 | COc1ccccc1C(=O)c1cccc([N+](=O)[O-])c1
39 | 201 to 204 | COc1cc(CCCO)cc2c(O)c(C(=O)NCc3ccc(Cl)cc3)cnc12
40 | 140 to 142 | CC(C)c1cccc(C(C)C)c1NS(=O)(=O)NC(=O)N(Cc1ccccc1)Cc1ccccc1
41 | 220 to 223 | NCCCc1nc2c([nH]1)-c1ccccc1N(C(=O)c1ccc(NC(=O)c3ccccc3-c3ccccc3)cc1)CC2

The remaining lines, values behind:

Row | SMILES | melting point [°C]
42 | CC(=S)N[C@@H]1c2cc(C#N)ccc2OC(C)(C)[C@H]1O (relative stereo) | 176 to 180
43 | CC(C)(C)OC(=O)N1CCC(CCOS(C)(=O)=O)CC1 | 60 to 63
44 | Nc1ccc2c(c1)COC2=O | 177 to 189
45 | c1cnc2c(c1)NCC2 | 63
46 | Cc1cc(Oc2c(Cl)cc(C(F)(F)F)cc2Cl)nn1C(=O)NCC(F)(F)F | 104 to 106
47 | Cc1nccn1C(c1ccccc1)(c1ccccc1)c1ccccc1Cl | 177
48 | CCn1ccnc1CC1COc2ccccc2O1 (centres undefined) | 77 to 78
49 | CCCc1c(C(=O)C(C)C)c2ccc(NC(=O)NC)cc2n1Cc1ccccc1Cl | 106 to 108
50 | C=CCOc1ccc(C)c2c1C(=O)CC2 | 89 to 92
51 | CC(=O)N1CC(CCN2CC=C(c3c[nH]c4cc(Cl)ccc34)CC2)c2ccccc21 (centres undefined) | 169 to 170
52 | COc1nc(OC)c(C(C)C)c(C(C#N)c2cc(C)cc(Cl)c2)n1 (centres undefined) | 105 to 106
53 | c1ccc(CCN2CCC(c3n[nH]c4c3CCc3ccccc3-4)CC2)cc1 | 151 to 152
54 | NC(=O)NCCSCC(=O)O | 135
55 | COC=C(Br)c1c(C(F)(F)F)nc(C(F)F)c(C(=O)OC)c1CC1CC1 | 79 to 79.5
56 | CC(C)n1cnc2c(Cl)nc(N)nc21 | 135 to 136
57 | O=C(COc1ccc(Cl)c(Cl)c1)Nc1cscc1C(=O)O | 258 to 264
58 | O=[N+]([O-])c1ccc2nc(CO)[nH]c2c1 | 157 to 162
59 | COC(=O)c1nc(Cl)nc(N)c1Cl | 164 to 166
60 | O=C(O)c1c[nH]c2c(=O)c3cc(Cl)ccc3oc2c1=O | 325 to 327
61 | O=C1Nc2ccc(F)cc2C12COc1cc3c(cc12)CCO3 (centres undefined) | 257 to 259

Row | SMILES | melting point [°C]
62 | O=S(=O)(Cc1ccccc1)N1CCC[C@H]1C(=S)OCCCc1ccccc1 | 62 to 64
63 | OC(CCCN1CC=C(c2noc(C3CC3)n2)CC1)c1ccc(F)cc1 (centres undefined) | 89 to 92
64 | CCOC(=O)CCc1c[nH]c2cnc(-n3cnnc3)cc12 | 215 to 218
65 | COCC(C)N(Cc1ccc(OC)c(OC)c1)C(=O)C(Cl)Cl (centres undefined) | 75 to 76
66 | CCOC(=O)C(=O)C(C#N)c1ccc(Br)cc1 (centres undefined) | 146
67 | CCOCC1=C(C(=O)OCC)C(c2ccccc2C(F)(F)F)C(C(=O)OCC)=C(C)N1 (centres undefined) | 112
68 | COC(=O)C1=C(C)NC(C)=NC1c1ccccc1Cl (centres undefined) | 225 to 227
69 | CCCCCNS(N)(=O)=O | 60 to 63
70 | CN1C(=O)c2cccc(S(=O)(=O)NC(C)(C)C)c2C1=O | 160 to 163
71 | O=C(O)/C=C/c1cc(OC2CCOCC2)nn1Cc1ccc(Cl)cc1Cl | 191 to 192
72 | CCN(CC1CC1)c1c([N+](=O)[O-])cc(C(F)(F)F)c(N)c1[N+](=O)[O-] | 99 to 100
73 | COc1cccc(C2(C(N)=O)CCCCC2)c1 | 120 to 122
74 | CCC(Oc1ncn(-c2ccc(Cl)c(Cl)c2)n1)C(=O)O (centres undefined) | 232 to 234
75 | Cc1cc([N+](=O)[O-])ccc1NC=O | 162
76 | CN(C)/C=C1/C(=O)N(C(=O)OC(C)(C)C)C2C3=C(CCCC3(C)C)CC12 (centres undefined) | 170 to 172
77 | O=C(O)C1CSC(c2ccccc2-c2ccccc2)N1 (mixture of isomers) | 190
78 | C[C@@H]1N=C(c2ccccc2)c2cc(N)ccc2N(C)C1=O | 219 to 221
79 | CN1CCCc2cc(C(C)(C(=O)O)c3ccc4c(c3)CCCN4C)ccc21 | 155 to 157
80 | COP(=O)(NC1C(=O)N2C(C(=O)OCc3ccc([N+](=O)[O-])cc3)=C(C=CN3CCCCC3)CSC12)OC (centres undefined) | 220 to 221
81 | O=C(CCCl)N(c1ccccc1)c1ccccc1 | 93 to 94

Row | SMILES | melting point [°C]
82 | Nc1cccc(-c2ccc(CCN3CCN(C(=O)Cc4ccccc4)CC3)cc2)n1 | 135 to 137
83 | CN1C2CCC1CC(O)(c1ccc(C(F)(F)F)cc1)C2 (centres undefined) | 189 to 190
84 | NS(=O)(=O)c1ccccc1S(=O)Cc1ccccc1 (centres undefined) | 206 to 209
85 | C[C@]1(CN2CCN(C(=O)CSc3ccc(Cl)cc3)CC2)Cn2cc([N+](=O)[O-])nc2O1 | 142 to 145
86 | FC(F)(F)c1ccc(C=Nc2c3c(nc4ccccc24)CCCC3)cc1 | 203 to 205
87 | C=CS(=O)(=O)CCC(F)(F)C(F)(F)C(F)(F)C(F)(F)C(F)(F)C(F)(F)F | 58 to 60
88 | CC(=O)C1CCC2C3CCC4=CC(=O)CCC4(CO)C3CCC12C (centres undefined) | 165 to 168
89 | C#CCn1c(-c2ccccc2)nn(C(C)(C)C)c1=O | 82 to 83
90 | O=C1OC(c2ccc(Cl)cc2)c2ccccc21 (centres undefined) | 124
91 | COC(=O)c1ccc(SC)c(OC2CCCC2)c1 | 53 to 55
92 | Cc1nc(Cl)cc(NN)n1 | 146
93 | CCCC(C=NNC(=O)OC)c1ccc(Cl)cc1Cl (centres undefined) | 165 to 166
94 | Nc1ccc(Sc2cccc3nccn23)cc1 | 167 to 168
95 | NS(=O)(=O)c1cc2[nH]c(-c3nc4cc(Cl)c(S(N)(=O)=O)cc4[nH]3)nc2cc1Cl | 360
96 | O=c1ccc2c(-n3cnc(Br)c3)nccc2[nH]1 | 278 to 280
97 | CC1(Br)COc2ccc(C#N)cc21 (centres undefined) | 163 to 165
98 | CC(=O)Nc1cc(C(=O)CCCCCl)cc2c1OCC2 | 150 to 152
99 | CN1CSC(=Cc2cc(C(C)(C)C)c(O)c(C(C)(C)C)c2)C1=O | 142 to 144

Reference: a melting point compilation (Tetko et al.; mined from patent text by program, amines drawn as free bases though some values may be those of a salt)
